Laboratory results published in article PMC2928817 (PLoS Pathogens, 2010).

Columns and labels:
A/Osaka/164/2009 (O164s) [1] = tested on: A/Osaka/164/2009 (O164s); parameters: species or system 2009 pandemic influenza A (H1N1) virus; settings: in vivo
A/Osaka/180/2009 (O180r) [2] = tested on: A/Osaka/180/2009 (O180r); parameters: species or system 2009 pandemic influenza A (H1N1) virus; settings: in vivo
[3] = tested on: A/Vietnam/HCM9727/2009 (VN9727s); parameters: species or system 2009 pandemic influenza A (H1N1) virus; settings: in vivo
[4] = tested on: A/Vietnam/HN32060/2009 (VN32060r); parameters: species or system 2009 pandemic influenza A (H1N1) virus; settings: in vivo
A/Osaka/164/2009 (O164s) [5] = assay type: cell-based, 2009 pandemic influenza A (H1N1) virus
A/Osaka/180/2009 (O180r) [6] = assay type: cell-based, 2009 pandemic influenza A (H1N1) virus
[7] = tested on: A/Vietnam/HCM9727/2009 (VN9727s); assay type: cell-based, 2009 pandemic influenza A (H1N1) virus
[8] = tested on: A/Vietnam/HN32060/2009 (VN32060r); assay type: cell-based, 2009 pandemic influenza A (H1N1) virus

SMILES | replication of O164s in the lungs of mice (A/Osaka/164/2009 (O164s) [1]) | replication of O180r in the lungs of mice (A/Osaka/180/2009 (O180r) [2]) | replication of VN9727s in the lungs of mice [3] | replication of VN32060r in the lungs of mice [4] | growth of O164s in the presence of NA inhibitor (A/Osaka/164/2009 (O164s) [5]) | growth of O180r in the presence of NA inhibitor (A/Osaka/180/2009 (O180r) [6]) | growth of VN9727s in the presence of NA inhibitor [7] | growth of VN32060r in the presence of NA inhibitor [8] | virus titers of O164s in the lungs of mice (A/Osaka/164/2009 (O164s) [1]) | virus titers of VN9727s in the lungs of mice [3]
[H]/N=C(\N)N[C@H]1C=C(C(=O)O)O[C@@H]([C@H](OC)[C@H](O)COC(=O)CCCCCCC)[C@@H]1NC(C)=O [CS-8958] | significantly reduced | significantly reduced | significantly reduced | significantly reduced | – | – | – | – | – | –
CCC(CC)O[C@@H]1C=C(C(=O)O)C[C@H](N)[C@H]1NC(C)=O [Oseltamivir carboxylate] | – | – | – | – | severely impaired | replicated efficiently | severely impaired | replicated efficiently | – | –
CC(=O)N[C@H]1[C@H]([C@H](O)[C@H](O)CO)OC(C(=O)O)=C[C@@H]1N=C(N)N [Zanamivir] | – | – | – | – | inhibited the replication | inhibited the replication | inhibited the replication | inhibited the replication | – | –
NC(=O)c1nc(F)c[nH]c1=O [favipiravir, Favipiravir] | significantly reduced | significantly reduced | significantly reduced | significantly reduced | – | – | – | – | – | –
CCOC(=O)C1=C[C@@H](OC(CC)CC)[C@H](NC(C)=O)[C@@H](N)C1 [oseltamivir, oseltamivir phosphate] | – | not inhibited | – | not inhibited | – | – | – | – | significantly reduced | significantly reduced
